In article PMC7490411 (Signal Transduction and Targeted Therapy, 2020):

Columns and labels:
[1] = test system: ABL1(H396P)-phosphorylated; experiment: KINOMEscan; format: binding; conditions: 1000 nM
STK33 = experiment: KINOMEscan; format: binding; conditions: 1000 nM
p38-alpha = experiment: KINOMEscan; format: binding; conditions: 1000 nM
MET = experiment: KINOMEscan; format: binding; conditions: 1000 nM
[2] = test system: RSK2(Kin.Dom.1-N-terminal); experiment: KINOMEscan; format: binding; conditions: 1000 nM
CDK4-cyclinD3 = experiment: KINOMEscan; format: binding; conditions: 1000 nM
RIOK2 = experiment: KINOMEscan; format: binding; conditions: 1000 nM
ASK2 = experiment: KINOMEscan; format: binding; conditions: 1000 nM
PLK1 = experiment: KINOMEscan; format: binding; conditions: 1000 nM
MET(M1250T) = experiment: KINOMEscan; format: binding; conditions: 1000 nM
MARK2 = experiment: KINOMEscan; format: binding; conditions: 1000 nM
[3] = test system: ABL1(T315I)-nonphosphorylated; experiment: KINOMEscan; format: binding; conditions: 1000 nM
CAMK4 = experiment: KINOMEscan; format: binding; conditions: 1000 nM
EIF2AK1 = experiment: KINOMEscan; format: binding; conditions: 1000 nM
EPHA8 = experiment: KINOMEscan; format: binding; conditions: 1000 nM
CDK3 = experiment: KINOMEscan; format: binding; conditions: 1000 nM
CLK2 = experiment: KINOMEscan; format: binding; conditions: 1000 nM
PIP5K2C = experiment: KINOMEscan; format: binding; conditions: 1000 nM
Mino cells = experiment: NK-cell-mediated ADCC, LDH release cytotoxicity assay, Rituximab; format: cell-based, human
Protocol: The cytotoxicity of NK cells was measured using the CyQUANT™ LDH Cytotoxicity Assay Kit (Invitrogen™, #C20300) according to the manufacturer’s instructions. Briefly, enriched NK cells (6 × 10^5 /ml) were cultured with the same volume of Mino cell and SK-OV-3 cell (1-2 × 10^4 /ml) in a 96-well plate for 4 h with Rituximab and Herceptin (10 μg/mL) and CHMFL-BTK-85 or PCI32765 at 37°C in a humidified CO2 incubator prior to removal of the supernatant for lactate dehydrogenase (LDH) release measurements. Calculate % Cytotoxicity by using the following formula: %Cytotoxicity = (Compound-treated LDH activity-Spontaneous LDH activity)/(Maximum LDH activity-Spontaneous LDH activity)*100.

CAMK1 = experiment: KINOMEscan; format: binding; conditions: 1000 nM
ERK5 = experiment: KINOMEscan; format: binding; conditions: 1000 nM
WNK4 = experiment: KINOMEscan; format: binding; conditions: 1000 nM
ACVR1B = experiment: KINOMEscan; format: binding; conditions: 1000 nM
RET = experiment: KINOMEscan; format: binding; conditions: 1000 nM
MEK3 = experiment: KINOMEscan; format: binding; conditions: 1000 nM
FLT1 = experiment: KINOMEscan; format: binding; conditions: 1000 nM
MLK1 = experiment: KINOMEscan; format: binding; conditions: 1000 nM
CSNK1G1 = experiment: KINOMEscan; format: binding; conditions: 1000 nM
EPHA1 = experiment: KINOMEscan; format: binding; conditions: 1000 nM
CDK5 = experiment: KINOMEscan; format: binding; conditions: 1000 nM
MKNK1 = experiment: KINOMEscan; format: binding; conditions: 1000 nM
KIT = experiment: KINOMEscan; format: binding; conditions: 1000 nM
PFCDPK1(P.falciparum) = experiment: KINOMEscan; format: binding; conditions: 1000 nM
[4] = test system: JAK1(JH1domain-catalytic); experiment: KINOMEscan; format: binding; conditions: 1000 nM
NEK10 = experiment: KINOMEscan; format: binding; conditions: 1000 nM
ACVRL1 = experiment: KINOMEscan; format: binding; conditions: 1000 nM
MET(Y1235D) = experiment: KINOMEscan; format: binding; conditions: 1000 nM
FLT3(N841I) = experiment: KINOMEscan; format: binding; conditions: 1000 nM
PDGFRA = experiment: KINOMEscan; format: binding; conditions: 1000 nM
PCTK3 = experiment: KINOMEscan; format: binding; conditions: 1000 nM
PRKCE = experiment: KINOMEscan; format: binding; conditions: 1000 nM
[5] = test system: NK cells co-seeded with Mino cells; experiment: IFN-γ secretion ELISA, NK cells co-cultured with Mino cells in presence of Rituximab; format: cell-based, human; conditions: Mino co-culture; 0.1 to 3 μM
PIK3CG = experiment: KINOMEscan; format: binding; conditions: 1000 nM
PIP5K1C = experiment: KINOMEscan; format: binding; conditions: 1000 nM
[6] = test system: EGFR(L747-S752del, P753S); experiment: KINOMEscan; format: binding; conditions: 1000 nM
PRKG2 = experiment: KINOMEscan; format: binding; conditions: 1000 nM
MST1R = experiment: KINOMEscan; format: binding; conditions: 1000 nM
[7] = test system: TMD8 cell (DLBCL)-inoculated xenograft; experiment: TMD8 cell subcutaneous xenograft tumor model; format: in vivo
HPK1 = experiment: KINOMEscan; format: binding; conditions: 1000 nM
SGK = experiment: KINOMEscan; format: binding; conditions: 1000 nM
EGFR(G719S) = experiment: KINOMEscan; format: binding; conditions: 1000 nM
CDK11 = experiment: KINOMEscan; format: binding; conditions: 1000 nM

C=CC(=O)Nc1cc(Nc2cc(-c3cccc(NC(=O)c4cc5c(s4)CCCC5)c3C)cn(C)c2=O)ccc1N1CCN(CC)CC1 [CHMFL-BTK-85]
Percent Control [1]: 85% | Percent Control (STK33): 90% | Percent Control (p38-alpha): 93% | Percent Control (MET): 62% | Percent Control [2]: 100% | Percent Control (CDK4-cyclinD3): 88% | Percent Control (RIOK2): 100% | Percent Control (ASK2): 100% | Percent Control (PLK1): 100% | Percent Control (MET(M1250T)): 95% | Percent Control (MARK2): 91% | Percent Control [3]: 94% | Percent Control (CAMK4): 100% | Percent Control (EIF2AK1): 100% | Percent Control (EPHA8): 91% | Percent Control (CDK3): 86% | Percent Control (CLK2): 84% | Percent Control (PIP5K2C): 85% | effect on antibody-dependent NK-cell-mediated cytotoxicity (ADCC) (Mino cells): did not affect | Percent Control (CAMK1): 100% | Percent Control (ERK5): 100% | Percent Control (WNK4): 82% | Percent Control (ACVR1B): 95% | Percent Control (RET): 100% | Percent Control (MEK3): 100% | Percent Control (FLT1): 100% | Percent Control (MLK1): 81% | Percent Control (CSNK1G1): 95% | Percent Control (EPHA1): 90% | Percent Control (CDK5): 98% | Percent Control (MKNK1): 100% | Percent Control (KIT): 92% | Percent Control (PFCDPK1(P.falciparum)): 100% | Percent Control [4]: 96% | Percent Control (NEK10): 100% | Percent Control (ACVRL1): 100% | Percent Control (MET(Y1235D)): 97% | Percent Control (FLT3(N841I)): 83% | Percent Control (PDGFRA): 100% | Percent Control (PCTK3): 86% | Percent Control (PRKCE): 93% | inhibition of Rituximab-induced IFN-γ secretion in NK cells [5]: no apparent inhibition | Percent Control (PIK3CG): 100% | Percent Control (PIP5K1C): 99% | Percent Control [6]: 100% | Percent Control (PRKG2): 95% | Percent Control (MST1R): 98% | TGI ([7]; TMD8 xenograft, 100 mg/kg/day, 28 days): 96% | toxicity signs in TMD8 xenograft model ([7]; mouse, body weight monitoring): no weight loss or any other obvious signs of toxicity | Percent Control (HPK1): 85% | Percent Control (SGK): 100% | Percent Control (EGFR(G719S)): 88% | Percent Control (CDK11): 82%
